Test results reported in patent US10501562B2, “Co-initiator and co-monomer for use in preparing polymer related compositions, methods of manufacture, and methods of use” (University of Kansas, priority 2015, dated 2019).

What was measured:
[1] = Chemical stability of amine co-initiators by 1H NMR in DMSO-d6/water; format: physicochemical; details: 100 days storage at 25° C., 0.04 M in DMSO-d6/deionized water 80/20 wt/wt
Experimental: The chemical stability of three amine co-initiators (EDMAB, DMAEMA, and TUMA) was characterized by ^1H NMR spectroscopy, which were obtained on a Bruker Advance DRX 500 spectrometer (Bruker AXS Inc., Madison, Wis.) equipped with a broadband probe. Deuterated dimethyl sulfoxide (DMSO-d6)/deionized water (80/20 wt/wt) was used as the solvent. The NMR spectra of 0.04 M amine samples were monitored as a function of storage time at 25° C. The mixed (DMSO/water) solvent was used because of its ability to dissolve EDMAB and TUMA, which are hydrophobic compounds.

[2] = during 24 hours; cited from earlier work

Compound | degraded (chemical stability) [1] | degradation in the presence of water [2]
C=C(C)C(=O)OCCN(C)C [DMAEMA, 2-(dimethylamino) ethyl methacrylate] | 37.6% | up to 82%
CCOC(=O)c1ccc(N(C)C)cc1 [EDMAB, Ethyl-4-(dimethylamino) benzoate] | No degradation was detected | 
C=C(C)C(=O)OCCNC(=O)OC(C)CN(CC(C)OC(=O)NCCOC(=O)C(=C)C)CC(C)OC(=O)NCCOC(=O)C(=C)C (stereo not shown) [TUMA, 8-(2-(((2-(methacryloyloxy)ethyl)carbamoyl)oxy)propyl)-6,10-dimethyl-4,12-dioxo-5,11-dioxa-3,8,13-triazapentadecane-1,15-diyl bis(2-methylacrylate)] | No degradation was detected | 
